The values that follow come from ChEMBL document CHEMBL2203205 (Eur J Med Chem, 2012).

Test [1] deals with Substance-P receptor (Homo sapiens) (UniProt P25103). The following applies: U-373MG ATCC.
Description: Displacement of [125I]BH-SP from NK1 receptor in human U-373MG cells at 10 uM after 60 mins
In test [2] the target is Nitric oxide synthase, inducible (Homo sapiens, UniProt P35228). The test is described as follows: Inhibition of recombinant human iNOS expressed in baculovirus-infected Sf9 cells assessed as conversion of [3H]-larginine to [3H]-L-citrulline preincubated for 15 mins measured after 45 mins by liquid scintillation counting.
Sequence of Nitric oxide synthase, inducible (P35228 whole entry, looked up): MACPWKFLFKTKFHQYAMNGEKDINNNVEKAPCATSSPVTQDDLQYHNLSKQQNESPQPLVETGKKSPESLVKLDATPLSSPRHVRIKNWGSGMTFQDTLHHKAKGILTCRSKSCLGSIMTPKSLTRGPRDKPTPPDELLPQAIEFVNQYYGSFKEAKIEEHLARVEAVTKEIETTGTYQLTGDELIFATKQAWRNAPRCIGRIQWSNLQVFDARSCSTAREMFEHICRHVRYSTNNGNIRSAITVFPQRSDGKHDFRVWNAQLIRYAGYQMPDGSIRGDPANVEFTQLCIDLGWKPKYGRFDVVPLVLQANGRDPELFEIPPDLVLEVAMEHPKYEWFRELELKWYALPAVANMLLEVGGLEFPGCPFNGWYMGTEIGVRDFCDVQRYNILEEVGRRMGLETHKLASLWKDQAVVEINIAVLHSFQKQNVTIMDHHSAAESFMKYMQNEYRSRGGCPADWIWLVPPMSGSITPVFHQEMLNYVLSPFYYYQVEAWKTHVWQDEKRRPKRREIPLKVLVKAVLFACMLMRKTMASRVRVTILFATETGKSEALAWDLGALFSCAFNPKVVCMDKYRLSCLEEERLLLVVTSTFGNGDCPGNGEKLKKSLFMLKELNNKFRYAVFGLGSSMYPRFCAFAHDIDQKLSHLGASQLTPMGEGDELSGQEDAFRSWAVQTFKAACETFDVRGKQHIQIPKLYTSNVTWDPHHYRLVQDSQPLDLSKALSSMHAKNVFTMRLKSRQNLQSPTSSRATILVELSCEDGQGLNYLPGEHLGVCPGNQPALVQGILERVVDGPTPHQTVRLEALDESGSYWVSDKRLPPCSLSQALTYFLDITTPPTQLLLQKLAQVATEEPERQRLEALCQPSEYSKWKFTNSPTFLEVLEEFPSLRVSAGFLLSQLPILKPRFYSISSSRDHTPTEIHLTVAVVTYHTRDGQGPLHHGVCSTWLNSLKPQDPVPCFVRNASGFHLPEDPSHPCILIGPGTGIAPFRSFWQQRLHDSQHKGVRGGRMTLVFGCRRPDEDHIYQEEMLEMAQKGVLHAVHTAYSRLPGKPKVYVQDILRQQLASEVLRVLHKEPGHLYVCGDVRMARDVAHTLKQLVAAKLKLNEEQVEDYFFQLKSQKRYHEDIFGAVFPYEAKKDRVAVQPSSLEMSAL
A further test deals with Nitric oxide synthase 3 (Homo sapiens, UniProt P29474). The test is described as follows: Inhibition of recombinant human eNOS expressed in baculovirus-infected Sf9 cells assessed as conversion of [3H]-larginine to [3H]-L-citrulline preincubated for 15 mins measured after 45 mins by liquid scintillation counting.
Sequence of Nitric oxide synthase 3 (P29474 whole entry, looked up): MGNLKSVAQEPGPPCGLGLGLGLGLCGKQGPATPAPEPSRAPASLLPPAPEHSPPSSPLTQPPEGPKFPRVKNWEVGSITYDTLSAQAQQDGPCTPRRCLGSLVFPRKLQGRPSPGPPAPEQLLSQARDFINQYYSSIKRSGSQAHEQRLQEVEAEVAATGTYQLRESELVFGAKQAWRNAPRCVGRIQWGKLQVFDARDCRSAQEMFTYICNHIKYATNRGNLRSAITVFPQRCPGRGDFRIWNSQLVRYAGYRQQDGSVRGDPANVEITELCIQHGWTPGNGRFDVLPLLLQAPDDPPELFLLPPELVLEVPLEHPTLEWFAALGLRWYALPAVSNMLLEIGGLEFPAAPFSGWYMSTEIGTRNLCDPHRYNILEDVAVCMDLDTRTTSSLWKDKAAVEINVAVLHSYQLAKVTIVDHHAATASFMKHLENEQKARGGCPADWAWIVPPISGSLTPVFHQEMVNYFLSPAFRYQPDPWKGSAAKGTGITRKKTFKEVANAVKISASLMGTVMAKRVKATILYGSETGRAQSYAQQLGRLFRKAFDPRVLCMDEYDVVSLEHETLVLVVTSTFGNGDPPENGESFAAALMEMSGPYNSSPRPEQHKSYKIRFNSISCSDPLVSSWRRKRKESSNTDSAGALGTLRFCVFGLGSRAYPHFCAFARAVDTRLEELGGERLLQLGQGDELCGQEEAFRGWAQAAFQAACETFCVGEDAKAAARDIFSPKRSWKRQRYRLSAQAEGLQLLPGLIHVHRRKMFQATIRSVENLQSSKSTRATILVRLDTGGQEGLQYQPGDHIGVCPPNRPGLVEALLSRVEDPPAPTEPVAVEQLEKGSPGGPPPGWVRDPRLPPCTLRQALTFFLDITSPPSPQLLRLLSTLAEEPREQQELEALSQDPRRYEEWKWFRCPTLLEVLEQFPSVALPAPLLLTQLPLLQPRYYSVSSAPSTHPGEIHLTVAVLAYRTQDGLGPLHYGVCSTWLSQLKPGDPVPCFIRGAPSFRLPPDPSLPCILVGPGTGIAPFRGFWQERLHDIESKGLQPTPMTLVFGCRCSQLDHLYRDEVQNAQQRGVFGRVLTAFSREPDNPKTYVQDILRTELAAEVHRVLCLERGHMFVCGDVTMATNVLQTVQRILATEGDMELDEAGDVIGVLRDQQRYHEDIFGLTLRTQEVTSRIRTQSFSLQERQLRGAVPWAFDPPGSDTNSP
The target of another test is Nitric oxide synthase 1 (Homo sapiens, UniProt P29475). The test is described as follows: Inhibition of recombinant human nNOS expressed in baculovirus-infected Sf9 cells assessed as conversion of [3H]-larginine to [3H]-L-citrulline preincubated for 15 mins measured after 45 mins by liquid scintillation counting.
Sequence of Nitric oxide synthase 1 (P29475 whole entry): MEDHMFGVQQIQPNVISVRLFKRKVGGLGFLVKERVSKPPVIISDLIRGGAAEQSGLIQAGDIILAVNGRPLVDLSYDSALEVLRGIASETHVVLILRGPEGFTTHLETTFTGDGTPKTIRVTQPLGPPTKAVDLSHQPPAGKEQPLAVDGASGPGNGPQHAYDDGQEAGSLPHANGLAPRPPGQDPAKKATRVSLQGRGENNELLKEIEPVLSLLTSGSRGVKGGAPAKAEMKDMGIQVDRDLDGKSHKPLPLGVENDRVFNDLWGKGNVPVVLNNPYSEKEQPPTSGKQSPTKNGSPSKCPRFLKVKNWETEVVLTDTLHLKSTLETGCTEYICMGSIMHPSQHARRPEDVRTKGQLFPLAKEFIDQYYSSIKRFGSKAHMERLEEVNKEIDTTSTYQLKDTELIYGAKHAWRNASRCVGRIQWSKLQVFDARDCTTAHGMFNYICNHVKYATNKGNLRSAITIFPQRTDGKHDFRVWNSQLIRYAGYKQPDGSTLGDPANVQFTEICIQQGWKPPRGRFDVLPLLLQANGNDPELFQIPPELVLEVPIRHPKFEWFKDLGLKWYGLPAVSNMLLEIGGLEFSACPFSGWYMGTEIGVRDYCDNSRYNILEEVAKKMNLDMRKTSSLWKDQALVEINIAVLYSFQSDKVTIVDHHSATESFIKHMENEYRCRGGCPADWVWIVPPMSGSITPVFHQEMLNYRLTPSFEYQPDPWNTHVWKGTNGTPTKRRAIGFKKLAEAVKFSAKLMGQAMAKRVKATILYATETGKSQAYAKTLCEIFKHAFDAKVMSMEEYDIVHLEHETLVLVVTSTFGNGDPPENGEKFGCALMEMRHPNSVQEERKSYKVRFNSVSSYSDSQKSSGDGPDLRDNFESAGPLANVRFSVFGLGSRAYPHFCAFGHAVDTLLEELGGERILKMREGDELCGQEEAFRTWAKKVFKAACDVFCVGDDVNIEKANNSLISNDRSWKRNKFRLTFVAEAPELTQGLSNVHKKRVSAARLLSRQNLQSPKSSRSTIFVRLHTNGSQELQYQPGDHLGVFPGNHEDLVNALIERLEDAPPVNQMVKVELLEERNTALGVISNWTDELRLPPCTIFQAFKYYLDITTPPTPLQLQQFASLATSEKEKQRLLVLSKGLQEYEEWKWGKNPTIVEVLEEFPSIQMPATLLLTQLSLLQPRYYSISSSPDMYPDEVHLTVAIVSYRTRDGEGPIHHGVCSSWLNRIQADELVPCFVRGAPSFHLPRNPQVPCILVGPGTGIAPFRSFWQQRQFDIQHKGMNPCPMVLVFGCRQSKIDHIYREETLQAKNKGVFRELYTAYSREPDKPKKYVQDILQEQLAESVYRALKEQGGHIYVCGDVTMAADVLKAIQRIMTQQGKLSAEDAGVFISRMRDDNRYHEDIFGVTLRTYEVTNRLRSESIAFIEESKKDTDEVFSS

The structures appear in SMILES notation.

Sequence of Substance-P receptor (Homo sapiens) (P25103 whole entry): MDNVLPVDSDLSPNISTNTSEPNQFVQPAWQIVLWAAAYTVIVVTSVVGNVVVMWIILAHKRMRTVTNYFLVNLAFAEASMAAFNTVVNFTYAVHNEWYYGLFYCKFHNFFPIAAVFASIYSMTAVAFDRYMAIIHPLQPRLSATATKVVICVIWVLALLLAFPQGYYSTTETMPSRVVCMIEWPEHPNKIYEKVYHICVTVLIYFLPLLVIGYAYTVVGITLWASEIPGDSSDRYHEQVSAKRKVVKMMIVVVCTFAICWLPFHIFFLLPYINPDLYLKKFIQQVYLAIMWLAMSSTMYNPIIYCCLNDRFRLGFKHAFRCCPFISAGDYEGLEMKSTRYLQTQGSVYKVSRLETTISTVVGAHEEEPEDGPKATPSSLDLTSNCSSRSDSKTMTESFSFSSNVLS

Turning to `N=C(Nc1ccc2c(c1)CCN2C1CCNCC1)c1cccs1` [listing 1 of 2 here], the inhibition in test [1] turned out to be 12%.

As for `N=C(Nc1ccc2c(c1)CCN2CCN1CCCC1)c1cccs1`, the IC50 in test [2] stood at 410 nM; on Nitric oxide synthase 3 it was 37300 nM; at Nitric oxide synthase 1, 120 nM.

Take `N=C(Nc1ccc2c(c1)CCN2C(=O)CN1CCCC1)c1cccs1`: the IC50 in test [2] was 770 nM; at Nitric oxide synthase 3, 10500 nM; on Nitric oxide synthase 1, 620 nM.

In the case of `N=C(Nc1ccc2c(c1)CCN2C1CCCNC1)c1cccs1` (racemic), the values for the IC50 (in test [2]; on Nitric oxide synthase 3; on Nitric oxide synthase 1) were 52200 nM, 94000 nM and 330 nM, respectively.

Take `CNC1CCC(N2CCc3cc(NC(=N)c4cccs4)ccc32)CC1` (cis isomer): the concentration for half-maximal inhibition (IC50) in test [2] was 4080 nM; at Nitric oxide synthase 1 it was 200 nM.

Turning to `CN(C)CCN1CCc2cc(NC(=N)c3cccs3)ccc21`, the IC50 in test [2] came to 4070 nM; on Nitric oxide synthase 3, 11400 nM; on Nitric oxide synthase 1, 40 nM.

As to `CC1CC(N2CCc3cc(NC(=N)c4cccs4)ccc32)CCN1` (cis isomer), the IC50 in test [2] came out at 1170 nM; on Nitric oxide synthase 3, 124000 nM; at Nitric oxide synthase 1, 690 nM.

On to `N=C(Nc1ccc2c(c1)CCN2CCNCCO)c1cccs1`, for which the IC50 on Nitric oxide synthase 3 is 10100 nM; at Nitric oxide synthase 1, 350 nM.

In the case of `CN1CCC(N2CCc3cc(NC(=N)c4cccs4)ccc32)CC1`, the IC50 in test [2] is 4670 nM; on Nitric oxide synthase 3 it was 58200 nM; at Nitric oxide synthase 1, 200 nM.

As to `N=C(Nc1ccc2c(c1)CCN2C1CCNCC1)c1cccs1` [listing 2 of 2 here], the IC50 in test [2] is 415000 nM; on Nitric oxide synthase 3, 40500 nM; at Nitric oxide synthase 1 it was 110 nM.

Take `CNC1CCC(N2CCc3cc(NC(=N)c4cccs4)ccc32)CC1` (trans isomer): the 50% inhibitory concentration (IC50) in test [2] is 4870 nM; at Nitric oxide synthase 1, 100 nM.

As to `CC1CC(N2CCc3cc(NC(=N)c4cccs4)ccc32)CCN1` (trans isomer), the IC50 in test [2] came out at 4750 nM; at Nitric oxide synthase 3 it was 36700 nM; on Nitric oxide synthase 1, 370 nM.

Regarding `N=C(Nc1ccc2c(c1)CCN2C1CCN(CCO)CC1)c1cccs1`, the IC50 in test [2] was 1580 nM; at Nitric oxide synthase 3, 39300 nM; on Nitric oxide synthase 1, 160 nM.

Take `CC1CC(N2CCc3cc(NC(=N)c4cccs4)ccc32)CCN1` (stereo in doubt): the IC50 came out at 1090 nM in test [2], 53700 nM at Nitric oxide synthase 3 and 710 nM at Nitric oxide synthase 1.

On to `CC1CC(N2CCc3cc(NC(=N)c4cccs4)ccc32)CCN1` (single isomer, unassigned; (+)), for which the results for the IC50 (in test [2]; at Nitric oxide synthase 3; on Nitric oxide synthase 1) were 1800 nM, 51700 nM and 910 nM, respectively.
